Experimental data from patent publication US20050136491A1, “Method of site specific labeling of proteins and uses therefor” (SmithKline Beecham Corporation, priority 1999, published 2005).
Blank lines part the entries; values can stand above or below the compound they belong to. Square brackets hold non-standard residues; d marks the D form. Peptide text beside a SMILES is read from it. * marks the point of attachment. Tyr(3-NO2) = N[C@@H](Cc1ccc(O)c([N+](=O)[O-])c1)C(=O)O; Biotin = O=C1N[C@H]2[C@H](CS[C@H]2CCCCC(=O)*)N1

Columns and labels:
[1] = target: T1, Factor XIIIa (Homo sapiens, UniProt P00488); experiment: Factor XIII(a)-mediated labeling of ACP-Peptide 1 C-terminal fusion (C-tagged ACP); assay type: biochemical; settings: for incorporation into ACP-Peptide 1 fusion: Mono Q ion exchange, 22 hr
T1 construct: purchased Enzyme Research Laboratories
T1 sequence (P00488 39-732 limits assumed): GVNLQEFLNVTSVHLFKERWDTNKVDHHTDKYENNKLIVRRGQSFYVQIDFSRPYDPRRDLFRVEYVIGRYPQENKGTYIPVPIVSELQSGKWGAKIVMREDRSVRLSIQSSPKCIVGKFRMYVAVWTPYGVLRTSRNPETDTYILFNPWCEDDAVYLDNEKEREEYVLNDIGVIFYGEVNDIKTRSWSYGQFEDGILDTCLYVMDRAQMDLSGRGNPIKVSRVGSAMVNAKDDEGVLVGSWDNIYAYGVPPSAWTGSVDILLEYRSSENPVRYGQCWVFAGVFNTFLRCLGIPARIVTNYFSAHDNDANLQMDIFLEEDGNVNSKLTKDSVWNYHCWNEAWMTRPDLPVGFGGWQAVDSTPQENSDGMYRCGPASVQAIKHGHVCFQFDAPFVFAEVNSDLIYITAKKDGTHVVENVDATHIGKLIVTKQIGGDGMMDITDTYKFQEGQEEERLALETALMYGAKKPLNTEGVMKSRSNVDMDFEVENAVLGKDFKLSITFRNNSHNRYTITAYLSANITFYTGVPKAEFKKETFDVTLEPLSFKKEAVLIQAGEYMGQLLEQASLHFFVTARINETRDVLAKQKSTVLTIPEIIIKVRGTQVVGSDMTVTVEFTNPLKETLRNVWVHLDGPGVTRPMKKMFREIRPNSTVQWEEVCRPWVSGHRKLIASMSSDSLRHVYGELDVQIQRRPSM
Experimental: A 270 units/ml reaction of Factor XIII was activated by 42 units/ml immobilized thrombin in Buffer 1:40 mM Tris-HCl, pH 8.3, 0.15 M NaCl. Cadaverine derivatives (rhodamine green and biotin) were used at 0.5 mM for each labeling reaction. The labeling reaction also contained 6 mM of DTT and 5 mM CaCl2. 0.5 mg/ml tagged ACP was used in the labeling reactions, against a 0.5 mg/ml native ACP control sample. Incubations were carried out at room temperature. Aliquots were taken from the mixtures at different time points and 50 mM EDTA was used to stop the labeling reaction (Factor XIII being Ca^2+ dependent). NuPAGE Tris-Glycine gels (4-12%) [Novex] were used to analyze the labeling results. The rhodamine green cadaverine labeling gel was observed under UV translumination, while the biotin cadaverine labeled protein was analyzed by Western blotting/streptavidin-HRP detection. […] No label was incorporated into the native ACP control under the conditions described above.
The ACP-peptide 1 C-terminal fusion was labeled with biotin cadaverine (Molecular Probes) in a reaction mixture of 0.5 mg/ml ACP-Peptide 1 fusion, 1.5 mM biotin-cadaverine and 504 units/ml Factor XIIIa. The efficiency of incorporation was determined by competitive ELISA to be 56%.
Novel biotinylation reagents (i.e. labeling compounds) were tested in an attempt to increase the yield. To this end, two biotinylated dipeptides, Biotin-Trp-Lys-OH and Biotin-NitroTyr-Lys-OH, were evaluated in a reaction mixture of 0.5 mg/ml ACP-Peptide 1 fusion, 1.5 mM biotin-cadaverine and 504 units/ml Factor XIIIa. Incorporation of the Biotin-Trp-Lys-OH dipeptide was shown by Mono Q ion exchange to be >85% (FIG. 2), in comparison to a 55% incorporation of the Biotin-NitroTyr-Lys dipeptide (FIG. 1). […] provides the C-tagged ACP standard. The identity of the modified peak was confirmed by addition of unmodified ACP at the end of the reaction (FIG. 4).

[2] = target: T2, Factor XIII (Homo sapiens, UniProt P00488); experiment: Factor XIII-mediated labeling of N-terminal Peptide 1-ACP fusion (N-tagged ACP); assay type: biochemical; settings: analysed by N-terminal sequencing and mass mapping
T2 construct: purchased Enzyme Research Laboratories
T2 sequence (P00488 39-732 limits assumed): T1 sequence (P00488 39-732 limits assumed)

[3] = 0.5 mg/ml fusion, 504 units/ml Factor XIIIa

Compound: NCCCC[C@H](NC(=O)[C@H](Cc1ccc(O)c([N+](=O)[O-])c1)NC(=O)CCCC[C@@H]1SC[C@@H]2NC(=O)N[C@@H]21)C(=O)O [Biotin-NitroTyr-Lys, Biotin-NitroTyr-Lys-OH] (Biotin-[Tyr(3-NO2)]-Lys-OH)
- incorporation into ACP-Peptide 1 fusion [1, 3]: 55%

Compound: NCCCC[C@H](NC(=O)[C@H](Cc1c[nH]c2ccccc12)NC(=O)CCCC[C@@H]1SC[C@@H]2NC(=O)N[C@@H]21)C(=O)O [Biotin-Trp-Lys-OH] (Biotin-Trp-Lys-OH)
- incorporation into ACP-Peptide 1 fusion [1, 3]: > 85%

- labeling efficiency of N-terminal Peptide 1-ACP fusion [2]: greater than 90%
Compound: CN(C)c1cccc2c(S(=O)(=O)NCCCCCN)cccc12 [dansyl cadaverine]

Compound: biotin cadaverine
- efficiency of incorporation into ACP-Peptide 1 C-terminal fusion ([1]; competitive ELISA, 0.5 mg/ml fusion, 1.5 mM label, 504 units/ml Factor XIIIa): 56%

- efficiency of labeling of the ACP-Peptide 1 C-terminal fusion [1]: greater than 90%
- extent of labeling of C-tagged ACP ([1]; non-optimized reaction, estimated by high-resolution ion exchange): greater than 85%
Compound: rhodamine green cadaverine
